Test results as given in patent US8513271B2, “Pyrimidine compounds as delta opioid receptor modulators” (Janssen Pharmaceutica, NV, priority 2009, dated 2013).
Read-outs that look alike come from different tables or passages of the source.

Key:
[1] = target: T1, delta opioid receptor (Mus musculus, UniProt P32300); experiment: [35S]GTPγS binding assay in NG108-15 cell membranes (delta opioid functional assay), 200 nM screen; assay type: biochemical; conditions: NG108-15 cell membranes; for EC50 / GTPγS δ-RelEfficacy @200 nM: averages if tested more than once; for GTPγS δ-opioid receptor Rel Efficacy: relative efficacy from dose response; for GTPγS δ-RelEfficacy @200 nM: 200 nM test compound, relative to calculated max of SNC80 dose response curve
T1 construct: NG108-15 cell membranes were purchased from Applied Cell Sciences (Rockville, Md.); host or cells: NG108-15 cell membranes

[2] = target: T2, delta opioid receptor (Rattus norvegicus, UniProt P33533); experiment: Rat brain delta opioid receptor binding assay; conditions: rat forebrain, [3H]naltrindole ligand
T2 construct: the forebrains were homogenized in Tris buffer in a Teflon®-glass homogenizer; from tissue; host or cells: forebrain of male Wistar rats, particulate (membrane) preparation

[3] = read-out: GTPγS δ-opioid receptor EC50
[4] = read-out: δ-binding (Naltrindole ligand) Ki
[5] = δ-binding (Naltrindole ligand) Ki
[6] = GTPγS δ-opioid receptor EC50 (μM)

T2 sequence (P33533 whole entry): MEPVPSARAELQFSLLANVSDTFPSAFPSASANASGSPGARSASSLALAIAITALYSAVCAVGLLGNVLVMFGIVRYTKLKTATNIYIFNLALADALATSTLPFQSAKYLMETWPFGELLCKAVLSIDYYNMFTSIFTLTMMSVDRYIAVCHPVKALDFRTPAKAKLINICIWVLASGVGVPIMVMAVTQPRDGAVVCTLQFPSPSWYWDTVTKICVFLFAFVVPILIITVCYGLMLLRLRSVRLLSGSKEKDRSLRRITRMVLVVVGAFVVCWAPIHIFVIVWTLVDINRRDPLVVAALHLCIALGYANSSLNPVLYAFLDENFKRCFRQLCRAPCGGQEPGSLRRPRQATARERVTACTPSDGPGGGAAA
T1 sequence (P32300 whole entry): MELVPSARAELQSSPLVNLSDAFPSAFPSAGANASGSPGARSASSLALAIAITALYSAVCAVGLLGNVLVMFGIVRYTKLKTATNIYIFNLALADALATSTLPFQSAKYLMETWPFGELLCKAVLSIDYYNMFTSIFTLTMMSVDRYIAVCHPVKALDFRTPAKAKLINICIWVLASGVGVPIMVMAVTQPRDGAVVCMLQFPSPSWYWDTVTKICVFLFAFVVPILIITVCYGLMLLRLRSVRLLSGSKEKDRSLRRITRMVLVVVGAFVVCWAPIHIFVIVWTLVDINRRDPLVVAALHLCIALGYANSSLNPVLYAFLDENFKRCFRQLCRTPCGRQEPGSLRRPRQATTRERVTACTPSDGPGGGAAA

COc1ccc(Oc2nc(-c3cncc(C#N)c3)ncc2NCC2COCCN2)cc1 (racemic) [Cpd 279]
EC50 [1, 3]: 0.17 µM | GTPγS δ-opioid receptor Rel Efficacy [1]: 1.004 | Ki [2, 4]: 0.005 µM

Cc1nc2ccc(Oc3nc(-c4cncc(C#N)c4)ncc3NC[C@@H]3CCCN3)cc2s1 [Cpd 88]
EC50 [1, 3]: 0.478 µM | GTPγS δ-opioid receptor Rel Efficacy [1]: 0.538 | Ki [2, 4]: 0.014 µM

COc1ccc(Oc2nc(-c3cncnc3)ncc2NC[C@@H]2C[C@H](F)CN2)cc1 [Cpd 89]
EC50 [1, 3]: 1.31 µM | Ki [2, 5]: 0.01 µM

Cc1nc2ccc(Oc3nc(-c4cncc(C#N)c4)ncc3NC[C@@H]3CCCN3)cc2s1 [Cpd 90]
EC50 [1, 3]: 0.923 µM | Ki [2, 5]: 0.009 µM

Cc1nc2ccc(Oc3nc(-c4cncnc4)ncc3NC[C@@H]3CCCN3)cc2s1 [Cpd 91]
EC50 [1, 3]: > 10 µM | Ki [2, 5]: 0.022 µM

COc1ccc(Oc2nc(-c3cc(C)cc(C)c3)ncc2NC[C@@H]2CCCN2)cc1 [Cpd 92]
EC50 [1, 3]: 0.47 µM | Ki [2, 5]: 0.035 µM

COc1ccc(Oc2nc(-c3cc(Cl)cc(Cl)c3)ncc2NC[C@@H]2CCCN2)cc1 [Cpd 94]
Ki [2, 4]: 0.143 µM

COc1ccc(Oc2nc(-c3ccc(C#N)nc3)ncc2NC[C@@H]2CCCN2)cc1 [Cpd 95]
EC50 [1, 3]: 0.708 µM | Ki [2, 5]: 0.011 µM

COc1c(F)cc(Oc2nc(-c3cncc(C#N)c3)ncc2NC[C@@H]2CCCN2)cc1F [Cpd 96]
EC50 [1, 3]: 0.749 µM | Ki [2, 5]: 0.035 µM

COc1c(F)cc(Oc2nc(-c3cncnc3)ncc2NC[C@@H]2CCCN2)cc1F [Cpd 97]
EC50 [1, 3]: 7.12 µM | Ki [2, 5]: 0.039 µM

COc1cccc(Oc2nc(-c3cncnc3)ncc2NC[C@@H]2CCCN2)c1 [Cpd 99]
EC50 [1, 3]: 0.939 µM | Ki [2, 5]: 0.059 µM

COc1cccc(Oc2nc(-c3cccnc3)ncc2NC[C@@H]2CCCN2)c1 [Cpd 100]
EC50 [1, 3]: 1.62 µM | Ki [2, 5]: 0.033 µM

COc1ccc(Oc2nc(-c3cncc(F)c3)ncc2NC[C@@H]2CCCN2)c(F)c1F [Cpd 102]
EC50 [1, 3]: 0.255 µM | Ki [2, 5]: 0.003 µM

COc1ccc(Oc2nc(-c3cncnc3)ncc2NC[C@@H]2CCCN2)c(F)c1F [Cpd 103]
EC50 [1, 3]: 0.311 µM | Ki [2, 5]: 0.011 µM

COc1ccc(Oc2nc(-c3cncc(S(C)(=O)=O)c3)ncc2NC[C@@H]2CCCN2)cc1 [Cpd 108]
Ki [2, 4]: 0.107 µM

FC(F)Oc1ccc(Oc2nc(-c3cncnc3)ncc2NC[C@@H]2CCCN2)cc1 [Cpd 111]
EC50 [1, 3]: 0.491 µM | Ki [2, 5]: 0.009 µM

Fc1cncc(-c2ncc(NC[C@@H]3CCCN3)c(Oc3ccc(OC(F)F)cc3)n2)c1 [Cpd 112]
EC50 [1, 3]: 0.33 µM | GTPγS δ-opioid receptor Rel Efficacy [1]: 1.082 | Ki [2, 4]: 0.006 µM

CCCOc1ccc(Oc2nc(-c3cncnc3)ncc2NC[C@@H]2CCCN2)cc1 [Cpd 114]
EC50 [1, 3]: 0.306 µM | Ki [2, 5]: 0.008 µM

CCCOc1ccc(Oc2nc(-c3cncc(F)c3)ncc2NC[C@@H]2CCCN2)cc1 [Cpd 115]
EC50 [1, 3]: 2.71 µM | Ki [2, 5]: 0.052 µM

COc1ccc(Oc2nc(-c3cccc4[nH]ccc34)ncc2NC[C@@H]2CCCN2)cc1 [Cpd 117]
Ki [2, 4]: 0.157 µM

COc1ccc(Oc2nc(-c3ccc4cc[nH]c4c3)ncc2NC[C@@H]2CCCN2)cc1 [Cpd 118]
Ki [2, 4]: 0.155 µM

COc1ccc(Oc2nc(-c3cccc4cc[nH]c34)ncc2NC[C@@H]2CCCN2)cc1 [Cpd 119]
Ki [2, 4]: 4.02 µM

COc1ccc(Oc2nc(-c3cnccn3)ncc2NC[C@@H]2CCCN2)cc1 [Cpd 120]
Ki [2, 4]: 0.104 µM

N#Cc1cncc(-c2ncc(NC[C@@H]3CCCN3)c(Oc3ccc(OCC(F)(F)F)cc3)n2)c1 [Cpd 122]
Ki [2, 4]: 0.122 µM

CCCCOc1ccc(Oc2nc(-c3cncc(C#N)c3)ncc2NC[C@@H]2CCCN2)cc1 [Cpd 125]
Ki [2, 5]: 0.078 µM

CCCCOc1ccc(Oc2nc(-c3cncnc3)ncc2NC[C@@H]2CCCN2)cc1 [Cpd 126]
Ki [2, 4]: 0.565 µM

CCCCOc1ccc(Oc2nc(-c3cncc(F)c3)ncc2NC[C@@H]2CCCN2)cc1 [Cpd 127]
Ki [2, 4]: 0.224 µM

COc1ccc(Oc2nc(-c3cncc(C#N)c3)ncc2NCC2CNCCO2)cc1 (centres unmarked) [Cpd 275]
EC50 [1, 3]: 0.922 µM | Ki [2, 5]: 0.046 µM

COc1ccc(Oc2nc(-c3cncc(F)c3)ncc2NCC2CNCCO2)cc1 (centres unmarked) [Cpd 276]
Ki [2, 4]: 0.227 µM

COc1ccc(Oc2nc(-c3cccnc3)ncc2N[C@@H]2CCC[C@H](N)C2)cc1 [Cpd 322]
EC50 [1, 6]: 0.196 µM | GTPγS δ-opioid receptor Rel Efficacy [1]: 0.960

COc1ccc(Oc2nc(-c3ccccc3)ncc2N2CCNCC2)cc1 [Cpd 324]
GTPγS δ-RelEfficacy @200 nM [1]: 0.519 | EC50 [1, 3]: 0.428 µM | GTPγS δ-opioid receptor Rel Efficacy [1]: 1.045

COc1ccc(Oc2nc(-c3cncc(C#N)c3)ncc2N2CCNCC2)cc1 [Cpd 325]
GTPγS δ-RelEfficacy @200 nM [1]: 0.866 | EC50 [1, 6]: 0.011 µM | GTPγS δ-opioid receptor Rel Efficacy [1]: 1.042

COc1ccc(Oc2nc(-c3cncc(C#N)c3)ncc2N2CC[C@@H](N)C2)cc1 [Cpd 326]
GTPγS δ-RelEfficacy @200 nM [1]: 0.744 | EC50 [1, 6]: 0.032 µM | GTPγS δ-opioid receptor Rel Efficacy [1]: 1.104

COc1ccc(Oc2nc(-c3cncc(C#N)c3)ncc2N2CC[C@H](N)C2)cc1 [Cpd 328]
GTPγS δ-RelEfficacy @200 nM [1]: 0.377

COc1ccc(Oc2nc(-c3cncc(C#N)c3)ncc2N2CCC[C@H](N)C2)cc1 [Cpd 329]
GTPγS δ-RelEfficacy @200 nM [1]: 0.475 | EC50 [1, 3]: 0.138 µM | GTPγS δ-opioid receptor Rel Efficacy [1]: 1.006

COc1ccc(Oc2nc(-c3cncc(C#N)c3)ncc2N2CCC[C@@H](N)C2)cc1 [Cpd 330]
GTPγS δ-RelEfficacy @200 nM [1]: 0.547 | EC50 [1, 3]: 0.051 µM | GTPγS δ-opioid receptor Rel Efficacy [1]: 0.894

COc1ccc(Oc2nc(-c3cncc(C#N)c3)ncc2N2CC(CN)C2)cc1 [Cpd 331]
GTPγS δ-RelEfficacy @200 nM [1]: 0.764 | EC50 [1, 3]: 0.108 µM | GTPγS δ-opioid receptor Rel Efficacy [1]: 0.928

COc1ccc(Oc2nc(-c3cncc(C#N)c3)ncc2N2CCC[C@@H]2CN)cc1 [Cpd 332]
GTPγS δ-RelEfficacy @200 nM [1]: 0.393

COc1ccc(Oc2nc(-c3cncc(C#N)c3)ncc2N2CCC(N)CC2)cc1 [Cpd 333]
GTPγS δ-RelEfficacy @200 nM [1]: 0.664 | EC50 [1, 3]: 0.118 µM | GTPγS δ-opioid receptor Rel Efficacy [1]: 1.116

COc1ccc(Oc2nc(-c3cncc(C#N)c3)ncc2N2CCC[C@@H]2CN)cc1 [Cpd 334]
GTPγS δ-RelEfficacy @200 nM [1]: 0.423

COc1ccc(Oc2nc(-c3cncc(C#N)c3)ncc2N2CCNC(=O)C2)cc1 [Cpd 335]
GTPγS δ-RelEfficacy @200 nM [1]: 0.050

COc1ccc(Oc2nc(-c3cncc(C#N)c3)ncc2N2CC3CC(C2)N3)cc1 [Cpd 338]
GTPγS δ-RelEfficacy @200 nM [1]: 0.723 | EC50 [1, 3]: 0.197 µM | GTPγS δ-opioid receptor Rel Efficacy [1]: 0.956

COc1ccc(Oc2nc(-c3cccnc3)ncc2N2CC[C@@H](N)C2)cc1 [Cpd 339]
GTPγS δ-RelEfficacy @200 nM [1]: 0.641

COc1ccc(Oc2nc(-c3cncc(OC)c3)ncc2N2CCNCC2)cc1 [Cpd 342]
EC50 [1, 6]: 0.0439 µM | GTPγS δ-opioid receptor Rel Efficacy [1]: 1.020

COc1ccc(Oc2nc(-c3cncc(C#N)c3)ncc2N2CCNC[C@H]2C)cc1 [Cpd 344]
GTPγS δ-RelEfficacy @200 nM [1]: 0.808 | EC50 [1, 6]: 0.047 µM | GTPγS δ-opioid receptor Rel Efficacy [1]: 1.089

COc1ccc(Oc2nc(-c3cncc(SC)c3)ncc2N2CC[C@@H](N)C2)cc1 [Cpd 348]
EC50 [1, 3]: 0.101 µM | GTPγS δ-opioid receptor Rel Efficacy [1]: 0.689

COc1ccc(Oc2nc(-c3cncc(SC)c3)ncc2N2CCNC(C)(C)C2)cc1 [Cpd 350]
EC50 [1, 6]: 0.083 µM | GTPγS δ-opioid receptor Rel Efficacy [1]: 1.079

COc1ccc(Oc2nc(-c3cncc(C)c3)ncc2N2CC[C@@H](N)C2)cc1 [Cpd 352]
EC50 [1, 6]: 0.079 µM | GTPγS δ-opioid receptor Rel Efficacy [1]: 0.967

COc1ccc(Oc2nc(-c3cccnc3)ncc2N2CCN(C)CC2)cc1 [Cpd 353, 4-(4-Methoxy-phenoxy)-5-(4-methyl-piperazin-1-yl)-2-pyridin-3-yl-pyrimidine]
EC50 [1, 3]: 0.27 µM | GTPγS δ-opioid receptor Rel Efficacy [1]: 0.651

COc1ccc(Oc2nc(-c3cccnc3)ncc2N2CCN[C@@H](C)C2)cc1 [Cpd 356]
EC50 [1, 3]: 0.031 µM | GTPγS δ-opioid receptor Rel Efficacy [1]: 1.030

COc1ccc(Oc2nc(-c3cncc(C)c3)ncc2N2CCCNCC2)cc1 [Cpd 358]
EC50 [1, 3]: 0.0242 µM | GTPγS δ-opioid receptor Rel Efficacy [1]: 0.978

COc1ccc(Oc2nc(-c3cccnc3)ncc2N2C[C@@H](C)N[C@@H](C)C2)cc1 [Cpd 359]
EC50 [1, 6]: 0.034 µM | GTPγS δ-opioid receptor Rel Efficacy [1]: 0.709

CC[C@H]1CNCCN1c1cnc(-c2cncc(OC)c2)nc1Oc1ccc(OC)cc1 [Cpd 360]
EC50 [1, 6]: 0.013 µM | GTPγS δ-opioid receptor Rel Efficacy [1]: 1.015

CC[C@@H]1CN(c2cnc(-c3cncc(OC)c3)nc2Oc2ccc(OC)cc2)CCN1 [Cpd 361]
EC50 [1, 6]: 0.07 µM | GTPγS δ-opioid receptor Rel Efficacy [1]: 0.962
